Measured values as given in PubChem BioAssay (NCI).
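Tested at 5 concentrations; 48 h exposure; 96-well plates; endpoints linearly interpolated, else capped at highest concentration. TGI denotes the concentration required for complete inhibition of growth.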

Assays:
Test in all cases: NCI anticancer screen, dose series, 48 h
[1] = system: IGROV1 ovarian
[2] = system: DU-145 prostate
[3] = system: A549 NSCLC
[4] = system: HT29 colon
[5] = system: SNB-19 CNS
[6] = system: COLO 205 colon
[7] = system: U251 CNS
[8] = system: NCI-H226 lung
[9] = system: K-562 leukemia
[10] = system: TK-10 renal
[11] = system: BT-549 breast
[12] = system: M14 melanoma
[13] = system: A498 renal
[14] = system: CAKI-1 renal
[15] = system: MDA-N
[16] = system: OVCAR-5 ovarian
[17] = system: SF-268 CNS
[18] = system: HCT-116 colon
[19] = system: SNB-75 CNS

| SMILES | TGI [1] | TGI [2] | TGI [3] | TGI [4] | TGI [5] | TGI [6] | TGI [7] | TGI [8] | TGI [9] | TGI [10] | TGI [11] | TGI [12] | TGI [13] | TGI [14] | TGI [15] | TGI [16] | TGI [17] | TGI [18] | TGI [19] |
| --- | --- | --- | --- | --- | --- | --- | --- | --- | --- | --- | --- | --- | --- | --- | --- | --- | --- | --- | --- |
| CC(CO)(CBr)COC(=O)c1cc(Br)c(N)c(Br)c1 (configuration not stated) | > 100 µM | > 100 µM | > 100 µM | > 100 µM | > 100 µM | > 100 µM | > 100 µM | > 100 µM | > 100 µM | > 100 µM | > 100 µM | > 100 µM | > 100 µM | > 100 µM | > 100 µM | > 100 µM | > 100 µM | > 100 µM |  |
| CC1OC(OC2C(CO)OC(O[C@H]3CC[C@@]4(C)C(=CC[C@H]5[C@@H]6C[C@@H]7O[C@](O)(CC[C@H](C)COC8OC(CO)C(O)C(O)C8O)[C@@H](C)[C@@H]7[C@@]6(C)CC[C@@H]54)C3)C(OC3OC(C)C(O)C(O)C3O)C2O)C(O)C(O)C1O (some centres not stated) | 23.1 µM | 5.92 µM | 5.55 µM | > 100 µM | 8.65 µM | > 35.5 µM | > 33 µM | 85 µM | > 33.4 µM | > 100 µM | 18 µM |  | > 100 µM | 3.61 µM | 11.3 µM | > 49.1 µM | 11.5 µM | > 32.1 µM | 4.78 µM |
| O=C1N=NC(=O)N1c1cc(C(F)(F)F)cc(C(F)(F)F)c1 | 14.8 µM | > 40 µM | 12 µM | 8.1 µM | > 40.8 µM | 3.35 µM | 12.4 µM | 12.4 µM | 32.9 µM | > 42.8 µM | 12.9 µM | 24.3 µM | 25.4 µM | 10.2 µM | 20.4 µM | 30.5 µM | 17.3 µM | 12.2 µM | 11.7 µM |
| O=C1C2=Cc3ccccc3OC2(O)Oc2ccc(O)cc21 (configuration not stated) | > 100 µM | > 100 µM | > 100 µM | > 100 µM |  | > 100 µM | > 100 µM | > 100 µM | 74.1 µM | > 100 µM | > 100 µM | > 100 µM | > 100 µM | > 100 µM | > 100 µM | > 100 µM | > 100 µM | > 100 µM | > 100 µM |
| Cc1coc2c1C(=O)C(=O)c1c-2ccc2c1CCCC2(C)C | 29.7 µM | 9.9 µM | 11.9 µM | 42.4 µM | 22.8 µM | 22.5 µM | > 100 µM | 11.2 µM | 11.5 µM | > 85.8 µM | 9.28 µM | 2.46 µM | 25.6 µM | 5.15 µM | 2.8 µM | 28.5 µM | > 100 µM | 4.27 µM | 16.3 µM |
| CC(C)(C)OC(=O)CC(NC(=O)OC(C)(C)C)C(=O)NC(C(=O)O)C(O)c1ccccc1 (configuration not stated) | > 100 µM | > 100 µM | > 100 µM | > 100 µM | > 100 µM | > 100 µM | > 100 µM | > 100 µM | > 100 µM | > 100 µM | > 100 µM | > 100 µM | > 100 µM | > 100 µM | > 100 µM | > 100 µM | > 100 µM | > 100 µM | > 100 µM |
| COc1ccc2nc3cc([N+](=O)[O-])ccc3c(Nc3ccc(S(=O)(=O)N=C(N)N)cc3)c2c1 |  | > 100 µM | > 100 µM | > 100 µM | > 100 µM | 70.6 µM | > 100 µM | > 100 µM | 63.1 µM | > 100 µM | > 100 µM | > 100 µM | > 100 µM | > 100 µM | > 100 µM | > 100 µM | > 100 µM | 80.5 µM |  |
| CCOC(=O)c1nnsc1NN=C(C)C | > 100 µM | > 100 µM | > 100 µM | > 100 µM |  | > 100 µM | > 100 µM | > 100 µM | > 100 µM | > 100 µM | > 100 µM | > 100 µM | > 100 µM | > 100 µM | > 100 µM | > 100 µM | > 100 µM | > 100 µM | > 100 µM |
| COC(=O)c1ccc(COC(=O)N2C=CCC2C(=O)O)cc1 (configuration not stated) | > 100 µM | > 100 µM | > 100 µM | > 100 µM | > 100 µM | > 100 µM | > 100 µM | > 100 µM | > 100 µM | > 100 µM | > 100 µM | > 100 µM |  | > 100 µM | > 100 µM | > 100 µM | > 100 µM |  | > 100 µM |
| CC1C2(C)OC(=N)C(C#N)(C(C)O2)C1(C#N)C#N (configuration not stated) | > 100 µM | 87 µM | > 100 µM | > 100 µM |  | 24.5 µM | 50 µM | > 100 µM | > 100 µM | > 100 µM | 92.5 µM | 35.8 µM | > 100 µM | 26.4 µM | 36.1 µM | > 100 µM | > 100 µM | 65 µM | > 100 µM |
| CCCNC(=O)Cn1c(C)cc2ccccc21 | > 100 µM | > 100 µM | > 100 µM | > 100 µM | > 100 µM | > 100 µM | > 100 µM | > 100 µM | > 100 µM | > 100 µM | > 100 µM | > 100 µM |  | > 100 µM | > 100 µM | > 100 µM | > 100 µM | > 100 µM | > 100 µM |
| CO/N=C(\C(=O)Nc1cncs1)c1csc(N)n1 | > 10 µM | > 10 µM | > 10 µM | > 10 µM | > 10 µM | > 10 µM | > 10 µM |  | > 10 µM | > 10 µM | > 10 µM | > 10 µM | > 10 µM | > 10 µM | > 10 µM | > 10 µM | > 10 µM | > 10 µM | > 10 µM |
